# Laboratory results from patent US20030130290A1, “Fungicidal combinations comprising thieno[2,3-d]pyrimidin-4-one” (priority 1997, published 2003).
# Columns and labels:
# [1] = system: Erysiphe graminis f.sp. tritici; experiment: Efficacy against Erysiphe graminis f.sp. tritici on wheat (Example B-1), spray application; type: in vivo, Erysiphe graminis f.sp. tritici on wheat plants c.v. Arina
# Text: (§1) A synergistic effect exists whenever the action of an active ingredient combination is greater than the sum of the actions of the individual components.
# (§2) The action to be expected E for a given active ingredient combination obeys the so-called COLBY formula and can be calculated as follows (COLBY, S. R. “Calculating synergistic and antagonistic responses of herbicide combination”. Weeds, Vol. 15, pages 20-22; 1967):
# (§3) According to Colby, the expected (additive) action of active ingredients I+II using p+q ppm of active ingredient is [formula]
# (§4) If the action actually observed (O) is greater than the expected action (E), then the action of the combination is superadditive, i.e. there is a synergistic effect. Alternatively the synergistic action may also be determined from the dose response curves according to the so-called WADLEY method. With this method the efficacy of the a.i. is determined by comparing the degree of fungal attack on treated plants with that on untreated, similarly inoculated and incubated check plants. Each a.i. is tested at 4 to 5 concentrations. The dose response curves are used to establish the EC90 (i.e. concentration of a.i. providing 90% disease control) of the single compounds as well as of the combinations (EC 90observed). The thus experimentally found values of the mixtures at a given weight ratio are compared with the values that would have been found were only a complementary efficacy of the components was present (EC 90 (A+B)expected). The EC90 (A+B)expected is calculated according to Wadley (Levi et al., EPPO- Bulletin 16, 1986, 651-657): [formula]
# Wheat plants c.v. “Arina”, about 10 days old, are sprayed with aqueous suspensions of the active ingredients or mixtures thereof. One day later, the plants are inoculated by dusting with spores of Erysiphe graminis. The tests may also be carried out with curative applications, i.e. application 1-3 days after artificial inoculation of the plants. The plants are incubated in the greenhouse or in climate chambers at 20° C., 70% relative humidity. 7 to 10 days after inoculation, fungal attack on primary leaves is assessed.
# (§5) The efficacy of the test combinations and the single active ingredients in the above tests is determined by comparing the degree of fungal attack with that on untreated, similarly inoculated check plants.
# Puccinia recondita = experiment: Activity against Puccinia recondita in wheat (B-7), spray application; type: in vivo, Puccinia recondita on wheat plants c.v. Arina; details: Table 5
# Text: as §1, §2, §3, §4
# Wheat plants c.v. “Arina”, about 10 days old, are sprayed with aqueous suspensions of the active ingredients or mixtures thereof. One day later, the plants are inoculated with a spore suspension of the fungus. The test may also be carried out with curative applications, i.e. application 1-3 days later after artificial inoculation of the plants. The plants are incubated in a growth chamber for 2 days at °20° C. and 95-100% relative humidity, then further 10 days at 20° C. and 70% relative humidity. Fungal attack on primary leaves is assessed.
# as §5
# [2] = system: Helminthosporium gramineum; experiment: Activity against Helminthosporium gramineum on barley (Example B-12), seed treatment; type: in vivo; details: Table 6
# Text: as §1, §2, §3, §4
# Barley seed which is infected with H.gramineum is harvested from the field. […] About 60 days after sowing, the number of existing plants and the number of infected plants are determined. Symptoms are expressed as typical stripe-shaped spots on the first leaf. The total infection rate is compared with the total infection rate in the comparison seed trays with untreated seeds and expressed as the total percentage infection rate.
structure (smiles),measurement,setting,value
"N#Cc1c[nH]cc1-c1cccc2c1OC(F)(F)O2 [Fludioxonil, fludioxonil, reference compound]",% activity observed,"[1]; Table 1, 10 ppm alone",2%
same,% activity observed,"[1]; Table 1, 25 ppm alone",0%
same,% activity observed,"[1]; Table 1, 50 ppm alone",6%
same,% activity observed,"[1]; Table 1, 100 ppm alone",14%
same,% activity observed,"[1]; Table 1, 250 ppm alone",19%
same,% activity observed,"[1]; Table 1, 500 ppm alone",27%
"CON=C(C(=O)OC)c1ccccc1CON=C(C)c1cccc(C(F)(F)F)c1 [cmpd. V, methyl 2-{2-[4-(3-trifluoromethylphenyl)-3-aza-2-oxa-3-pentenyl]-phenyl}-2-methoxyimino-acetate, reference compound]",inhibition at 1 ppm,"Puccinia recondita; Puccinia recondita, 1 ppm alone, read-out: % activity observed",17%
same,inhibition at 2.5 ppm,"Puccinia recondita; Puccinia recondita, 2.5 ppm alone, read-out: % activity observed",32%
same,inhibition at 5 ppm,"Puccinia recondita; Puccinia recondita, 5 ppm alone, read-out: % activity observed",38%
same,inhibition at 10 ppm,"Puccinia recondita; Puccinia recondita, 10 ppm alone, read-out: % activity observed",37%
"CC(C1CC1)C(O)(Cn1cncn1)c1ccc(Cl)cc1 (stereo not drawn) [cyproconazole, reference compound]",% activity observed,"[1]; Table 2, 1 ppm alone",8%
same,% activity observed,"[1]; Table 2, 2.5 ppm alone",49%
same,% activity observed,"[1]; Table 2, 5 ppm alone",100%
same,% activity observed,"[1]; Table 2, 10 ppm alone",100%
CC1(C)CC/C(=C\c2ccc(Cl)cc2)C1(O)Cn1cncn1 (stereo not drawn) [triticonazole],% activity observed,[2]; 20 g a.i./100 kg seed alone,12%
same,% activity observed,[2]; 40 g a.i./100 kg seed alone,22%
"CCCC1COC(Cn2cncn2)(c2ccc(Cl)cc2Cl)O1 (stereo not drawn) [propiconazole, reference compound]",% activity observed,"[1]; Table 3, 0.1 ppm alone",0%
same,% activity observed,"[1]; Table 3, 0.25 ppm alone",0%
same,% activity observed,"[1]; Table 3, 0.5 ppm alone",6%
same,% activity observed,"[1]; Table 3, 1 ppm alone",8%
same,% activity observed,"[1]; Table 3, 2.5 ppm alone",72%
"CC(Cc1ccc(C(C)(C)C)cc1)CN1CCCCC1 (stereo not drawn) [fenpropidine, reference compound]",inhibition at 2.5 ppm,"[1]; Blumeria graminis, Table 4, 2.5 ppm alone, read-out: % activity observed",35%
same,inhibition at 5 ppm,"[1]; Blumeria graminis, Table 4, 5 ppm alone, read-out: % activity observed",51%
same,inhibition at 10 ppm,"[1]; Blumeria graminis, Table 4, 10 ppm alone, read-out: % activity observed",63%
CCCOc1nc2sc(Cl)cc2c(=O)n1CCC [cmpd. I.01],% activity observed,[2]; 20 g a.i./100 kg seed alone,11%
same,% activity observed,"[1]; Table 1, 10 ppm alone",0%
same,% activity observed,"[1]; Table 1, 25 ppm alone",0%
same,% activity observed,"[1]; Table 1, 50 ppm alone",12%
same,% activity observed,"[1]; Table 1, 100 ppm alone",26%
same,% activity observed,"[1]; Table 1, 250 ppm alone",34%
same,% activity observed,"[1]; Table 1, 500 ppm alone",66%
same,% activity observed,"[1]; Table 2, 1 ppm alone",0%
same,% activity observed,"[1]; Table 2, 2.5 ppm alone",0%
same,% activity observed,"[1]; Table 2, 5 ppm alone",8%
same,% activity observed,"[1]; Table 2, 10 ppm alone",8%
same,% activity observed,"[1]; Table 2, o.5 ppm alone",0%
same,% activity observed,"[1]; Table 3, 0.5 ppm alone",2%
same,% activity observed,"[1]; Table 3, 1 ppm alone",0%
same,% activity observed,"[1]; Table 3, 2.5 ppm alone",14%
same,% activity observed,"[1]; Table 3, 5 ppm alone",8%
same,% activity observed,"[1]; Table 3, 10 ppm alone",4%
same,% activity observed,"[1]; Table 4, 0.25 ppm alone",0%
same,% activity observed,"[1]; Table 4, 0.5 ppm alone",0%
same,% activity observed,"[1]; Table 4, 1 ppm alone",0%
same,% activity observed,"[1]; Table 4, 2.5 ppm alone",0%
same,% activity observed,Puccinia recondita; 0.5 ppm alone,0%
same,% activity observed,Puccinia recondita; 1 ppm alone,0%
same,% activity observed,Puccinia recondita; 2.5 ppm alone,0%
same,% activity observed,Puccinia recondita; 5 ppm alone,0%
same,% activity observed,Puccinia recondita; 10 ppm alone,0%
same,% activity observed,Puccinia recondita; 25 ppm alone,0%
